# Results: the METLIN SMRT retention time set (Domingo-Almenara et al. 2019)
# Assay: gradient 5% acetonitrile 3 min, to 50% in 2 min, to 85% in 15 min, held 3 min, 100 µL/min
# Settings: column: Zorbax Extend-C18 2.1 x 50 mm; eluents: water / acetonitrile, 0.1% formic acid
# Outline: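 Pure standards were run in mixtures of ~100 molecules by HPLC coupled to a quadrupole time-of-flight mass spectrometer. The column was a Zorbax Extend-C18 (2.1 × 50 mm, 1.8 μm) at 100 μL/min, with water and acetonitrile each containing 0.1% formic acid, in positive and negative ionization mode. Dead and dwell volumes were 40 μL and 900 μL. Retention time was taken from computationally picked adduct peaks, each manually inspected, with data collected over 3 months.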
row,Compound,RP-LC retention time [s]
1,O=C(NCc1ccc(N2CCOCC2)cc1)c1cn2c(n1)CSCC2,604
2,CCn1c(=O)c(C(=O)NC(C)C)nc2cc(C)c(C)cc21,803
3,COc1ccc(Cl)cc1NC(=O)Cn1c(C)ncc(C(=O)NC2CCCC2)c1=O,791
4,Cc1cc(N2CCC(NC(=O)Nc3ccc4c(c3)OCCO4)C2=O)ccc1F (stereo unspecified),774
5,O=C(c1ccc(F)c(F)c1)N1CCCN(c2cc(-c3ccc4c(c3)OCO4)[nH]n2)CC1,703
6,O=C(C1CCC1)N1CCc2sc(S(=O)(=O)NCc3ccc(Cl)cc3)cc2C1,916
7,O=C(Cn1cnc2nc(N3CCC(C(=O)NC4CC4)CC3)sc2c1=O)Nc1ccccc1Cl,665
8,COC[C@@H]1CN(C(=O)c2cc3cc(Cl)ccc3[nH]2)C[C@H]1C(N)=O,672
9,Cc1ccc(C)c(NC(=O)c2cc(C)n3nc(C)cc3n2)c1,1090
10,COc1ccc2c(c1)C1CC(C)(O2)N(C)C(=O)C1S(=O)(=O)c1ccc(C(C)C)cc1 (stereo unspecified),1160
11,CCCN1CCN(C2CCN(C(=O)C(CC)CC)CC2)C1=O,727
12,CNC(=O)c1cc(C)n(C)n1,835
13,O=C(Nc1cccc(C(F)(F)F)c1)Nc1cnn(-c2ncc(N3CCCC3)cn2)c1,921
14,CN=C(NC#N)NCCSCc1csc(N=C(N)N)n1,616
15,O=C(Cc1cccs1)N1CCCCC1c1nc(-c2cnccn2)no1 (stereo unspecified),726
16,Cc1cccc(C2CCCN2C(=O)c2nn(C)cc2Cl)c1 (stereo unspecified),849
17,Cc1sc(-c2noc(C(C)C)n2)cc1S(=O)(=O)N1CCC(C(=O)NCc2ccco2)CC1,992
18,O=C1NCCCn2cc(S(=O)(=O)N3CCN(c4ccccc4F)CC3)cc21,742
19,COCCN1C(=O)[C@H]2CN(Cc3ccc(F)cc3Cl)C[C@H]2C1=O,693
20,CC1(C(=O)NCc2ccc3c(c2)OCO3)CCN(C(=O)/C=C/c2ccccc2)CC1,817
21,Cc1cccn2cc(-c3cccc(S(=O)(=O)N4CCCCCC4)c3)nc12,692
22,C=CCNC(=O)C1CCCN(S(=O)(=O)c2cc(OC)ccc2OC)C1 (stereo unspecified),723
23,Cc1sc(-n2c(C)c3c(C)nnc(C)c3c2C)nc1-c1ccccc1,687
24,Cn1cc(C2c3nccn3CCCN2C(=O)c2cccn2C)cn1 (stereo unspecified),564
25,Cc1ccc(NC(=O)Cn2nc3n(c2=O)CCCCC3)cc1C,717
26,Cn1cc(C(=O)OCC2CCN(CCNS(C)(=O)=O)CC2)c2ccccc21,680
27,Cc1ncc2c(n1)C[C@@H]1CC[C@H]2N1C(=O)Nc1ccc(C)c(F)c1,728

row,Compound,RP-LC retention time [s]
1,O=C(c1cc(S(=O)(=O)N2CCCC(C(=O)N3CCCCC3)C2)c[nH]1)N1CCCC1 (stereo unspecified),716
2,COc1ccc(N2CCN(C(=O)c3[nH]c(C)c(S(=O)(=O)N4CCOCC4)c3C)CC2)cc1,703
3,CCCC(C)NC(=O)c1ccc2c(c1)CCCN2S(=O)(=O)CC (stereo unspecified),872
4,O=C(NC1CCCc2ccccc21)C1CCN(C(=O)c2cccn2-c2cccnc2)CC1 (stereo unspecified),742
5,CS(=O)(=O)N1CCN=C1SCc1ccc(Cl)c(Cl)c1,889
6,CC(C)NC(C)Cc1ccc(I)cc1 (stereo unspecified),746
7,COc1ccc2c(c1)C1(CCN(C(=O)CC(C)C)C1)C(=O)N2C (stereo unspecified),722
8,Cc1nc(-c2cc(S(=O)(=O)NCc3ccc(F)c(Cl)c3)c(C)s2)cs1,1010
9,CC(C)Cn1cc(C(=O)O)c(S(=O)(=O)N2CCN(C(C)C)CC2)n1,609
10,CCCNC(=O)CCc1c(C)c(C(=O)OCC)c(C)n1C,779
11,CCCNC(=O)CN1C(=O)CCCc2cc(S(=O)(=O)N3CCCCCC3)ccc21,803
12,CCOC(=O)c1c(C)oc2ncnc(Nc3ccc(OC)c(Cl)c3)c12,1270
13,CCOC(=O)C1CCN(C(=O)Cn2c(=O)oc3ccc(C(=O)N4CCCC4)cc32)CC1,699
14,Cc1nc(C)c(C(=O)NCC2Cn3cccc3C(=O)N2C)s1 (stereo unspecified),594
15,CCOC(=O)c1cc(S(=O)(=O)N2CCCC2C(=O)NC2CCCCCCC2)cn1C (stereo unspecified),1020
16,COC(=O)C1C(=O)C2=C(CC1C)NC(=O)CC2c1cccc(C)c1 (stereo unspecified),675
17,CCC(C)NC(=O)N1CCNC(=O)C1 (stereo unspecified),557
18,CCCCN1CCN(C(=O)c2ccc(-c3ccnc(N4CCCC4)n3)cc2)CC1,573
19,CCOC(=O)N1CCN(C(=O)c2ccc(S(=O)(=O)NCc3cccs3)o2)CC1,729
20,Cc1ccc(CNC(=O)CN2CCc3ccccc3C2C(=O)N2CCCCC2)cc1C (stereo unspecified),908
21,COc1ccc(C(=O)CSc2nnc(-c3cc(C)oc3C)o2)cc1OC,911
22,O=C(NCc1ccco1)C1CCCN(c2nnc3ccc(Cl)cn23)C1 (stereo unspecified),687
23,CCOC(=O)Cn1c(=O)c2c(nc3n2CCCCN3c2ccc(OCC)cc2)n(C)c1=O,944
24,Cc1ccc(C)c(NC(=O)c2cc3c(=O)n(CC(C)C)ccc3n2C)c1,884
25,O=C1COc2cc(S(=O)(=O)N3CCC(C(=O)NC4CCCC4)CC3)c(Cl)cc2N1,735
26,O=C(Cn1cnc2nc(N3CCCC(C(=O)NC4CC4)C3)sc2c1=O)Nc1ccccc1 (stereo unspecified),663

# Continued, values first:
row,RP-LC retention time [s],Compound
1,919,COc1ccc(N2CCN(CCNc3cc(C(=O)O)c4ccccc4n3)CC2)cc1
2,938,Cn1nccc1-c1cccc(-c2noc(-c3ccoc3)n2)c1
3,686,CCCNc1cc(N2CCC(CCC(=O)NCc3ccc(F)cc3)CC2)ncn1
4,1150,COc1ccc(C2Cn3nnc(-c4nc(-c5ccccc5Br)no4)c3CO2)cc1 (stereo unspecified)
5,840,O=C(c1cc(-c2ccccc2)n[nH]1)N1CCN(S(=O)(=O)c2ccc(F)cc2)CC1
6,761,O=C(Nc1cc(F)cc(F)c1)C1CCCN(c2ccnc(-c3ccc(F)cc3)n2)C1 (stereo unspecified)
7,944,Cc1ccccc1CNC(=O)C1(C)CCCN(S(=O)(=O)c2ccccc2)C1 (stereo unspecified)
8,725,COc1ccc(CSc2nccc3c2ccn3CC(=O)NCc2ccc(C)o2)cc1
9,806,CC(C)NC(=O)Cn1c(=O)cc(-c2nc(C3CC3)no2)c2ccccc21
10,856,COc1ccc(OC)c(NC(=O)N2CCC3(CC2)N=C(c2cccc(F)c2)C(=O)N3)c1
11,961,Cc1nn2c(nnc3c(=O)n(CCc4c[nH]c5ccc(F)cc45)ccc32)c1-c1ccc(F)cc1
12,662,O=C(Nc1ccc(-n2cnnn2)cc1)C1CC(=O)N(c2ccccc2)C1 (stereo unspecified)
13,1030,CC(C)c1noc(-c2cc(=O)n(CC(=O)NCc3cccc(Cl)c3)c3ccccc23)n1
14,976,CCN1C(=O)COc2ccc(-c3csc(NC(=O)c4ccc(OC)cc4)n3)cc21
15,722,COc1ccc(C)cc1NC(=O)N1CCCC(Cn2c(C3CC3)nc3cccnc32)C1 (stereo unspecified)
16,922,Cn1nc(-c2nnc(-c3ccccc3F)o2)c2c1CCN(S(=O)(=O)c1ccc(F)cc1F)C2
17,705,CN(Cc1ccco1)C(=O)c1nc2ccccn2c1-c1ccc(F)cc1
18,718,C=C(C)Cn1c(COc2ccccc2)nc2ccccc21
19,670,CCCC(NC(=O)c1ccccn1)C(=O)Nc1nc2ccccc2[nH]1 (stereo unspecified)

row,RP-LC retention time [s],Compound
1,846,Cc1ccccc1NC(=O)Cn1nc2c(Oc3cccc(F)c3)nccn2c1=O
2,852,Cc1nnc(-c2ccc3ccn(CC(=O)N4CCc5ccccc54)c3c2)o1
3,846,O=C(CN1CCN(Cc2ccc(F)cc2)C1=O)NCc1cccc(Cl)c1
4,878,Cn1c(=O)n(C)c2cc(S(=O)(=O)c3ccccc3)c(NC(=O)c3ccccc3F)cc21
5,678,Cc1nc(-c2noc(-c3ccncc3)n2)cn1CC(=O)N1CCc2ccccc21
6,705,CCc1nnc2ccc(-c3noc(-c4ccc(NC(C)=O)cc4)n3)cn12
7,893,COc1ccc(-c2cc3n(n2)CCCN(C(=O)c2cc4ccccc4[nH]2)C3)cc1
8,772,CCOC(=O)CNC(=O)NCc1cccn1Cc1ccccc1F
9,766,COC(=O)c1c(NCCc2cccs2)c2ccc(F)cc2[nH]c1=O
10,560,CCc1nc(NCc2cccnc2)ncc1C(=O)O
11,697,Cc1cccc(-c2ncccc2CNS(=O)(=O)c2ccc(C#N)cc2)c1
12,939,Cc1ccc(-c2cc3n(n2)CCCN(C(=O)Cc2ccccc2F)C3)cc1
13,934,COCCCNC(=O)c1ccc(-c2nc(CSc3ccccc3)c(C)o2)cc1
14,915,Cc1ccc(-c2nc(-c3cccc(-c4ccn[nH]4)c3)no2)cc1F
15,876,CCOc1ccccc1-n1ccn(Cc2nc(-c3cccc(F)c3)no2)c(=O)c1=O
16,690,O=S(=O)(c1ccccc1)N1CC(F)(F)C[C@H]1COc1cccnc1
17,658,COc1ccc(-c2ncc3c(n2)CCN(C(=O)Nc2c(F)cccc2F)C3)cc1
18,1220,COc1ccccc1CNc1ccc(-c2nc(-c3ccc(F)cc3)no2)cn1
19,899,Brc1ccc(NCc2nnc(-c3ccccc3)o2)cc1
